Data: EP4803074A1, “PHARMACEUTICAL COMPOSITION OF PYRIMIDINE DERIVATIVE” (TYK Medicines, Inc., priority 2023, dated 2025)
Where two headings read alike, the source gives them in different places.

What was measured:
[1] = Single-dose pharmacokinetic study, fasting vs high-fat meal; settings: human, in vivo, po, 80 mg, healthy volunteers
[2] = Impurity B content of process samples on storage at room temperature (HPLC); type: physicochemical; settings: 20 days (Laboratory placement)
From the text: Impurity B (Impurity RRT1.5, i.e., relative retention time 1.5) is a degradation impurity identified in the stability studies of this formulation and is a specific impurity that requires close monitoring. […] Therefore, the study of Impurity B content is also a key point of the invention. The method for determining the content of Impurity B is as follows: [table] [table] • Heptafluorobutyric acid: Chromatographic grade Water: Ultrapure water Ammonia solution: Chromatographic grade or analytical grade • Acetonitrile: Chromatographic grade Methanol: Chromatographic grade • TY-9591 Reference Standard: In-house preparation or commercially purchased • 3. […]

pH-dependent solubility = type: physicochemical; settings: result in words
From the text: (§1) Drugs can be absorbed at many different sites along the gastrointestinal tract (including the stomach, duodenum, jejunum, ileum, and colon) following oral administration. Due to the significant pH gradient between the stomach (pH 1 - 3.5) and the small intestine (pH 4 - 8), the pH varies at each absorption site. […] In such cases, where the solubility of a drug varies with pH-and specifically when solubility is highest at acidic pH levels-a problem arises: the drug may precipitate out of solution as it passes through the gastrointestinal tract, but the drug should remain in solution to be absorbed, such precipitation may affect the extent and rate of absorption.

Permeability = type: in vitro ADME; settings: result in words
From the text: as §1

[3] = After high-fat meal, single oral dose of 80 mg of Tablet 22
[4] = Fasting, single oral dose of 80 mg of Tablet 22

Compound [2H]C([2H])([2H])n1cc(-c2ccnc(Nc3cc(NC(=O)C=C)c(N(C)CCN(C)C)cc3OC)n2)c2ccccc21 [TY-9591, N-(2-((2-(dimethylamino)ethyl) (methyl)amine)-4-methoxy-5-((4-(1-deuteriatedmethyl-1H-indol-3-yl)pyrimidin-2-yl)amine)phenyl)acrylamide] has an AUC(0-inf) [1, 3] of 4350 ng·h/mL, a Cmax [1, 3] of 69 ng/mL and a Tmax [1, 3] of 5.95 h. The half-life [1, 3] was 48.6 h, the AUC(0-t) ([1]; After high-fat meal, single oral dose of 80 mg of Tablet 22, read-out: AUC0-72h) was 2670 ng·h/mL and the AUC(0-t) ([1]; After high-fat meal, single oral dose of 80 mg of Tablet 22, read-out: AUC0-t) was 4300 ng·h/mL. For the same compound, the Tmax ([1]; Fasting, single oral dose of 80 mg of Tablet 22 (40 mg*2 tablets)) was 5.99 h, the AUC(0-inf) [1, 4] was 3930 ng·h/mL and the Cmax [1, 4] was 67.8 ng/mL. The half-life [1, 4] was 51.2 h, the AUC(0-t) ([1]; Fasting, single oral dose of 80 mg of Tablet 22, read-out: AUC0-72h) was 2330 ng·h/mL and the AUC(0-t) ([1]; Fasting, single oral dose of 80 mg of Tablet 22, read-out: AUC0-t) was 3880 ng·h/mL. For the same compound, the “Impurity B/%” value [2] was 0.13%, the “solubility at pH 1 (hydrochloric acid) compared to pH 6.8 (sodium hydroxide-sodium dihydrogen phosphate buffer, 25 mM)” value (pH-dependent solubility) was “higher solubility” and the permeability (Permeability) was “moderate permeability”.
